pIC50: −log10 of the molar value.
Columns and labels:
human FAAH [1] = target: T1, human FAAH (Homo sapiens, UniProt O00519); experiment: FAAH cell lysate assay (human lysate, FAAH_CHO, AAMCA substrate); format: biochemical; details: lysate of CHO cells expressing human FAAH; read-out: human lysate_IC50
T1 construct: The full length FAAH was subcloned into the mammalian expression vector, pcDEF.neo, using XbaI and EcoRI restriction sites; expressed in transfected cells
T1 sequence (O00519 1-579): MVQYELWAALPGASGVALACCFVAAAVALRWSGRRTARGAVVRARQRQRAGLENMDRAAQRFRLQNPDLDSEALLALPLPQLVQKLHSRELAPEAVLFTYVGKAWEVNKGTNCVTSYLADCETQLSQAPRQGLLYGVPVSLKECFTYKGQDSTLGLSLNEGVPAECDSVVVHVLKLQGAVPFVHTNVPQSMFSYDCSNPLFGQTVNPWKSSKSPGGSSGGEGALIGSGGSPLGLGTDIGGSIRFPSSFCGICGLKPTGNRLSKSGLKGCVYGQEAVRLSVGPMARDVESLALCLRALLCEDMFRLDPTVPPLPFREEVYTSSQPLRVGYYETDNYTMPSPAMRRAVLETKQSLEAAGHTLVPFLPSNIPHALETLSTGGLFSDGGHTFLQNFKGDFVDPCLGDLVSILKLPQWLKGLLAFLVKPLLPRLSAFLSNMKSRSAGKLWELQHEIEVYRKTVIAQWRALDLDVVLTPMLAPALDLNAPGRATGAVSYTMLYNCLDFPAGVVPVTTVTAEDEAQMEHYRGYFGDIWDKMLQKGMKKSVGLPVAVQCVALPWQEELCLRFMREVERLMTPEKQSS
Source text: (§1) To assist in assay development stable cell lines for human, murine and rat full length FAAH were developed. Human FAAH cDNA (Accession No: NM_001441.1) was purchased from Origene (Rockville, Md.). The full length FAAH was subcloned into the mammalian expression vector, pcDEF.neo, using XbaI and EcoRI restriction sites and used for stable cell line generation.
CHO cells expressing FAAH were used to prepare either crude cell lysate or microsome fractions. To harvest cells, tissue culture media was decanted, the monolayer washed three times with Ca^++Mg^++ free PBS and cells recovered after 15 mm in enzyme free dissociation media (Millipore Corp, Billerica, Mass.). Cells were collected by centrifuging at 2000 rpm for 15 min. and the cell pellet re-suspended with 50 mM HEPES (pH 7.4) containing 1 mM EDTA and the protease inhibitors aprotinin (1 mg/ml) and leupeptin (100 μM). The suspension was sonicated at 4° C. and the cell lysate recovered after centrifuging at 12,000×g (14,600 rpm, SS34 rotor) for 20 min at 4° C. to form a crude pellet of cell debris, nuclei, peroxisomes, lysosomes, and mitochondria; the supernatant or cell lysate was used for FAAH enzyme assay. In some cases, microsomes fractions enriched in FAAH were prepared by centrifuging the cell lysate further at 27,000 rpm (100,000×g) in SW28 rotor for 50 minutes at 4° C. The pellet containing FAAH-enriched microsomes was re-suspend in 50 mM HEPES, (pH 7.4) 1 mM EDTA, and any remaining DNA sheared by passage of material through a 23 gauge needle and aliquots of enzyme were store at −80° C. prior to use.
(American Radiolabeled Chemicals; 1 mCi/ml) with FAAH (Life Sciences (1995), 56, 1999-2005 and Journal of Pharmacology and Experimented Therapeutics (1997), 283, 729-734), Analytical. Biochemistry (2003), 318:270-5. In addition, routine assays were performed monitoring hydrolysis of araehidonyl-7-amino-4-methylcoumarin amide (AAMCA) by following increase in fluorescence upon release of 7-amino 4-methyl coumarin (λEX=355 nm, (λEM=460 nm). Analytical. Biochemistry (2005). 343:143-51
(§2) Assays are performed on either cell lysate or microsome fractions prepared as described or in whole cell format employing either the fluorescent substrate AAMCA (Cayman chemical, Ann Arbor, Mich.) or ^3H-anandamide ([ETHANOLAMINE-1-3H] American Radiolabeled Chemicals; 1 mCi/ml). The cell lysate or microsome assay is performed in black PerkinElmer OptiPlates-384F by adding FAAH_CHO (whole cell (shown as human Whole cell or Human WC), cell lysate (shown as human lysate of human LY) or microsome) in assay buffer (50 mM Phosphate, pH 8.0, 1 mM EDTA, 200 mM KCl, 0.2% glycerol, 0.1% fatty acid free BSA) to each well, followed by either DMSO or compound and allowed to incubate at 22-25° C. for fifteen minutes. AAMCA substrate was used to achieve a final concentration of 1 μM and reaction allowed to proceed at room temperature for 1-3 hours. Fluorescent release as a measure of FAAH activity was monitored by reading the plate in an Envision plate Reader (Ex: 360/40 nM; Em: 460/40 nM). Whole cell assay is conducted with cells harvested after rinsing tissue culture flasks three times with Ca^++Mg^++ free PBS, incubating for 10 min in Enzyme free dissociation media and centrifuging for 5 minutes at 1,000 rpm in table top centrifuge. Cells are resuspended in assay buffer at desired cell number in (4×10^4 cells/assay in 96-well format; 1×10^4 cells/assay in 384-well format) and assayed as described.

human FAAH [2] = target: T1, human FAAH; experiment: FAAH whole cell assay (human Whole cell, FAAH_CHO, AAMCA substrate); format: cell-based; details: CHO cells expressing human FAAH, whole cell format; read-out: human cell_IC50
Source text: as §1
Murine (accession number NM_010173) and Rat FAAH (accession number NM_024132) was amplified by reverse transcriptase polymerase chain reaction (RT-PCR) from brain cDNA (BD Biosciences, San Jose, Calif.) using primers 1 and 2 or primers 1 and 3 respectively (see Table). The resulting PCR product was ligated into pCR4 TOPO and DNA sequence confirmed. The full length murine FAAH was subcloned into the mammalian expression vector, pcDEFneo using either EcoRI (murine) or KpnI and EcoRI (rat) restriction sites. Chinese hamster ovary cells (CHO) were transfected following manufacturers protocol (AMAXA). Forty eight hours post transfection, cells were trypsinized and transferred to 96 well plates in Iscove's DMEM media supplemented with 2 mM Glutamine, 10% fetal calf serum, 1 mg/ml geneticin and HT Supplement (0.1 mM sodium hypoxanthine, 0.016 mM thymidine) in order to isolate single clones. Following selection in geneticin, individual clones were selected and FAAH activity was assessed using a whole cell fluorescent anandamide assay, modified from Ramarao et al (2005). Following removal of tissue culture media cells were dislodged following addition of Cellstripper (Mediatech, Inc. Manassas, Va.) and transferred to 96 well black clear bottom assay plate, centrifuged at 1,000 rpm for 3 mins and media removed and replaced with assay buffer (50 mM Tris pH8.0, 1 mM EDTA, 0.1% fatty acid free BSA). The reaction was initiated by addition of fluorescent substrate, AMC Arachidonoyl Amide (Cayman Chemical, Ann Arbor, Mich.) to 1 μM and reaction allowed to proceed for 2 hours at room temperature. Release of fluorescence was monitored in a CytoFluor Multiplate Reader. Cells expressing the highest amount of FAAH activity were selected for study with FAAH inhibitors.
as §2

Structure (SMILES)	pIC50 (human FAAH [1])	pIC50 (human FAAH [2])
O=C(O)c1ccc(OCc2nc(-c3ccc(F)cc3)oc2Sc2ccc(Cl)cn2)cc1 [Example B2.11.1, 4-({5-[(5-chloropyridin-2-yl)sulfanyl]-2-(4-fluorophenyl)-1,3-oxazol-4-yl}methoxy)benzoic acid]	7.23	6.60
Cn1ncnc1COCc1nc(-c2ccc(F)cc2)oc1Sc1ccc(Cl)cn1 [Example B2.12, 5-chloro-2-{[2-(4-fluorophenyl)-4-{[(1-methyl-1H-1,2,4-triazol-5-yl)methoxy]methyl}-1,3-oxazol-5-yl]sulfanyl}pyridine]	6.09	5.67
COC(=O)c1ccc(OCc2nc(C3CC3)oc2Sc2ccc(Cl)cn2)cc1 [Example D4.1, methyl 4-({5-[(5-chloropyridin-2-yl)sulfanyl]-2-cyclopropyl-1,3-oxazol-4-yl}methoxy)benzoate]	6.73	5.88
Fc1ccc(-c2nc(COC3CCNCC3)c(Sc3ccc(Cl)cn3)o2)cc1 [Example B2.14, 5-chloro-2-({2-(4-fluorophenyl)-4-[(piperidin-4-yloxy)methyl]-1,3-oxazol-5-yl}sulfanyl)pyridine]	6.04	5.47

Stronger by pIC50 (human FAAH [1]), values ahead:

pIC50 (human FAAH [1])	pIC50 (human FAAH [2])	Structure (SMILES)
8.10	7.41	COC(=O)c1ccc(OC(C)c2nc(-c3ccc(F)cc3)oc2Sc2ccc(Cl)cn2)cc1 (stereo not shown) [Example B7.1, methyl 4-(1-{5-[(5-chloropyridin-2-yl)sulfanyl]-2-(4-fluorophenyl)-1,3-oxazol-4-yl}ethoxy)benzoate]
8.52	7.74	COC(=O)c1ccc(NCc2nc(-c3ccc(F)cc3)oc2Sc2ccc(Cl)cn2)cc1 [Example B5.1, methyl 4-[({5-[(5-chloropyridin-2-yl)sulfanyl]-2-(4-fluorophenyl)-1,3-oxazol-4-yl}methyl)amino]benzoate]
7.62	6.65	Fc1ccc(-c2nc(COc3ccc4c(c3)OCO4)c(Sc3ccc(Cl)cn3)o2)cc1 [Example B2.4, 2-({4-[(1,3-benzodioxol-5-yloxy)methyl]-2-(4-fluorophenyl)-1,3-oxazol-5-yl}sulfanyl)-5-chloropyridine]
7.33	6.44	N#Cc1ccc(OCc2nc(-c3ccc(F)cc3)oc2Sc2ccc(Cl)cn2)cc1 [Example B2.6, 4-({5-[(5-chloropyridin-2-yl)sulfanyl]-2-(4-fluorophenyl)-1,3-oxazol-4-yl}methoxy)benzonitrile]

From patent publication US9073879B2, “Oxazole derivatives useful as modulators of FAAH” (MERCK SHARP & DOHME CORP., priority 2010, dated 2015)
